Numbered stars: 1 amine (or outer) side, 2 acyl side, 3 side chain; on linkers, the order of the positions; unused ones are H or OH. Bridge positions count the residues as written; N and C are the ends. Square brackets hold non-standard residues; d marks the D form. Peptide text beside a SMILES is read from it. * marks the point of attachment. X3 = CCCN1C[C@H](CSCC(=O)Oc2ccc(C[C@H](N[*:1])C(=O)[*:2])cc2I)C[C@@H]2c3cccc4[nH]cc(c34)C[C@H]21; X1 = CCCN1C[C@H](CSCC(=O)*)C[C@@H]2c3cccc4[nH]cc(c34)C[C@H]21; AEEA = NCCOCCOCC(=O)O
How the values were obtained:
[1] = target: hDA2; assay: Dopamine-2 receptor radioligand binding assay; parameters: species or system human; settings: [3H]spiperone
[2] = target: T1, hsst2 (Homo sapiens, UniProt P30874); assay: Somatostatin receptor radioligand binding assay, hsst2; settings: CHO-K1 membranes, [125I]MK-678; read-out: hsst2 Ki
T1 construct: expressed in transfected cells
How it was run: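 Membranes from CHO-K1 cells stably expressing human SSTR2, in 10 mM Tris-HCl, incubated 90 min at 25 °C with 0.05 nM [125I]MK-678. Bound ligand collected by filtration on PEI-soaked GF/C filters; nonspecific binding defined with 1000 nM MK-678.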

[3] = target: T2, hUTII (Homo sapiens, UniProt Q9UKP6); assay: hUTII inhibition constant; assay type: binding; settings: read-out: hUTII Ki
T2 sequence (Q9UKP6 1-389): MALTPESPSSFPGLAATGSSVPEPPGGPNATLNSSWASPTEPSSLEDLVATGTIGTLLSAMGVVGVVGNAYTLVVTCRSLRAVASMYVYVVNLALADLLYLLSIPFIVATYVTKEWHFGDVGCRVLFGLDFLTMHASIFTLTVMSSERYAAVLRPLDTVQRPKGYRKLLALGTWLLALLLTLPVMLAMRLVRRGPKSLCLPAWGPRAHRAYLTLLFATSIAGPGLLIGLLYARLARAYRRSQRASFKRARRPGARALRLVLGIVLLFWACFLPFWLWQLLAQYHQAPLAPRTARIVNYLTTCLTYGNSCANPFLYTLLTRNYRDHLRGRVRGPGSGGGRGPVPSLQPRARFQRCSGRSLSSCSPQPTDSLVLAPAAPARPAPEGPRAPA
Method: (§1) Using the discussed assays, the inhibition constants (Ki) for the five human somatostatin receptors (hSSTR1-hSSTR5) and the dopamine-2 receptor (hUTII and hDA2) were measured for the exemplified somatostatin-dopamine conjugates, as follows: […]

[4] = target: T3, hsst1 (Homo sapiens, UniProt P30872); assay: Somatostatin receptor radioligand binding assay, hsst1; settings: CHO-K1 membranes, [125I-Tyr11]SS-14; read-out: hsst1 Ki
T3 construct: expressed in transfected cells
Method: Specificity and selectivity of the somatostatin analogues used to synthesize the somatostatin-dopamine chimers were determined by a radioligand binding assay on CHO-K1 cells stably transfected with each of the SSTR subtypes, as follows. Somatostatin analogs are also described in U.S. Patent Application Publication No. 02210006790. The complete coding sequences of genomic fragments of the SSTR 1 (e.g., Genbank accession No. M81829), SSTR 2 (e.g., Genbank accession No. M81830), SSTR 3 (e.g., Genbank accession No. L07062), and SSTR 4 (e.g., Genbank accession No. AL049651) genes and a cDNA clone for SSTR 5 (e.g., Genbank accession No. D16827) was subcloned into the mammalian expression vector pCMV (Life Technologies, Milano, Italy). Other SSTR sequences are known to the skilled artisan. Clonal cell lines stably expressing SSTR's 1-5 were obtained by transfection into CHO-K1 cells (ATCC, Manassas, Va., USA) using the calcium phosphate co-precipitation method (Davis L, et al., 1994 In: Basic methods in Molecular Biology, 2nd edition, Appleton & Lange, Norwalk, Conn., USA: 611-646). The plasmid pRSV-neo (ATCC) was included as a selectable marker. Clonal cell lines were selected in RPMI 1640 media containing 0.5 mg/mL of G418 (Life Technologies, Milano, Italy), ring cloned, and expanded into culture.
Membranes for in vitro receptor binding assays were obtained by homogenizing the CHO-K1 cells expressing the SSTR's subtypes in ice-cold 50 mM Tris-HCl and centrifuging twice at 39,000 g (10 min), with an intermediate resuspension in fresh buffer. The final pellets were resuspended in 10 mM Tris-HCl for assay.
For the SSTR 1, 3, 4, and 5 assays, aliquots of the membrane preparations were incubated 90 minutes at 25° C. with 0.05 nM [^125I-Tyr11]SS-14 in 50 mM HEPES (pH 7.4) containing 10 mg/mL BSA, 5 mM MgCl2, 200 KIU/mL Trasylol, 0.02 mg/mL bacitracin, and 0.02 mg/mL phenylmethylsuphonyl fluoride. The final assay volume was 0.3 mL.
For the SSTR 2 assay, 0.05 nM [^125I]MK-678 was employed as the radioligand and the incubation time was 90 minutes at 25° C. The incubations were terminated by rapid filtration through GF/C glass microfiber filters (Whatman Co.) (pre-soaked in 0.3% polyethylenimine) using a BRANDEL filtration manifold. Each tube and filter was washed three times with 5 mL aliquots of ice-cold buffer. Specific binding was defined as the total radioligand bound minus that bound in the presence of 1000 nM SS-14 for SSTR 1, 3, 4, and 5, or 1000 nM MK-678 for SSTR2.
as §1

[5] = target: T4, hsst3 (Homo sapiens, UniProt P32745); assay: Somatostatin receptor radioligand binding assay, hsst3; settings: CHO-K1 membranes, [125I-Tyr11]SS-14; read-out: hsst3 Ki
T4 construct: expressed in transfected cells
How it was run: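 Membranes from CHO-K1 cells stably transfected with each human SSTR subtype, incubated 90 min at 25 °C with 0.05 nM [125I-Tyr11]SS-14 in 50 mM HEPES pH 7.4 with BSA, MgCl2 and protease inhibitors; filtration read-out. Nonspecific binding with 1000 nM SS-14; Ki values reported.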

[6] = target: T5, hsst5 (Homo sapiens, UniProt P35346); assay: Somatostatin receptor radioligand binding assay, hsst5; settings: CHO-K1 membranes, [125I-Tyr11]SS-14; read-out: hsst5 Ki
T5 construct: expressed in transfected cells
How it was run: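 Membranes from CHO-K1 cells stably expressing hsst5, incubated 90 min at 25 °C with 0.05 nM [125I-Tyr11]SS-14 in 50 mM HEPES pH 7.4 with BSA, MgCl2 and protease inhibitors. Bound ligand collected by filtration. Non-specific binding defined with 1000 nM SS-14.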

T4 sequence (P32745 whole entry): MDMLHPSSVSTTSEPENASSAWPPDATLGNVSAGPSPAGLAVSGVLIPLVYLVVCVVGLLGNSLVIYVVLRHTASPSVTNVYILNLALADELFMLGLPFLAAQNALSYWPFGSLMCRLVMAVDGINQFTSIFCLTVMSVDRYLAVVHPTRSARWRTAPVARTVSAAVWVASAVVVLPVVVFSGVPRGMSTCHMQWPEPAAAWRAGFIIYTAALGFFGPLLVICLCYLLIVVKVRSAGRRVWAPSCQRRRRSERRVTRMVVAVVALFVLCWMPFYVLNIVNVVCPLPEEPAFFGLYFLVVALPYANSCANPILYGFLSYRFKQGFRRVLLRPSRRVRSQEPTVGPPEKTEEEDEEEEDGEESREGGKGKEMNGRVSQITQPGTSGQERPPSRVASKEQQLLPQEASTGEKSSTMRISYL
T5 sequence (P35346 whole entry): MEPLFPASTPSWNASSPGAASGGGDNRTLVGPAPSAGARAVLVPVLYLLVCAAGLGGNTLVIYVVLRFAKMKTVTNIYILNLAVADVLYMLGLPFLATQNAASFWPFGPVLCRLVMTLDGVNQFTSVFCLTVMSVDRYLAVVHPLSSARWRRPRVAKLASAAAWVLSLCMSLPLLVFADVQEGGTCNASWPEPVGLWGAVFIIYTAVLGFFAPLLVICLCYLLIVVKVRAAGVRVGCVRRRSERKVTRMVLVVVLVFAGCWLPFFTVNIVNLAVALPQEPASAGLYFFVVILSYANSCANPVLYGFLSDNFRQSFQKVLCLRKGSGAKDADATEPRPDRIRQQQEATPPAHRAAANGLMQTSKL
T1 sequence (P30874 whole entry): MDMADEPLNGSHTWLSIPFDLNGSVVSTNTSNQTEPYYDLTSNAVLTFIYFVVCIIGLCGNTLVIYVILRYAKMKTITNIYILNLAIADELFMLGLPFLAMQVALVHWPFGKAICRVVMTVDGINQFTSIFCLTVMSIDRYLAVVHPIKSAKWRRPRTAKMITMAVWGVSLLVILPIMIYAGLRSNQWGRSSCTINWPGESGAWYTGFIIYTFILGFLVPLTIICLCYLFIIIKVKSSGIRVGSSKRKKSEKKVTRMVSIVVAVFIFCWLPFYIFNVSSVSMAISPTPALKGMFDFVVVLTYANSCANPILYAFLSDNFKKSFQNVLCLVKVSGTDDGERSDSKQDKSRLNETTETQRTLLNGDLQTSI
T3 sequence (P30872 whole entry): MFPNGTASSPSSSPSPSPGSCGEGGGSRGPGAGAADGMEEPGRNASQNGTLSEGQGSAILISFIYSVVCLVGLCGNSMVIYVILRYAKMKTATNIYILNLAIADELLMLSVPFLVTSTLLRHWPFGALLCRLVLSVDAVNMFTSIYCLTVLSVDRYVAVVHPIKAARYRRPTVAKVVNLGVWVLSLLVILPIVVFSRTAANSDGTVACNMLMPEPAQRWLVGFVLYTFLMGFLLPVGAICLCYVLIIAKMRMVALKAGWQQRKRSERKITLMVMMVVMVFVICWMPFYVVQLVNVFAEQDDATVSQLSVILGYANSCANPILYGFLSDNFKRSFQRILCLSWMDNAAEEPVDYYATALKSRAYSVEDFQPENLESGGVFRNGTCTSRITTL

Ki [1] | Ki [2] | Ki [3] | Ki [4] | Ki [5] | Ki [6] | SMILES
193 nM | 0.19 nM | 695 nM | 345 nM | 267 nM | 28.6 nM | CCNC(=O)N(CCCN(C)CC(=O)N[C@H](Cc1ccccc1)C(=O)N[C@H]1CSSC[C@@H](C(=O)N[C@H](C(N)=O)[C@@H](C)O)NC(=O)[C@H](CC)NC(=O)[C@H](CCCCN)NC(=O)[C@@H](Cc2c[nH]c3ccccc23)NC(=O)[C@H](Cc2ccc(O)cc2)NC1=O)C(=O)[C@H]1CN[C@@H]2Cc3c[nH]c4cccc(c34)[C@H]2C1 [Example 7]
255 nM | 0.32 nM | 223 nM | 1000 nM | 70.3 nM | 17 nM | CC[C@@H]1NC(=O)[C@H](CCCCN)NC(=O)[C@@H](Cc2c[nH]c3ccccc23)NC(=O)[C@H](Cc2ccc(O)cc2)NC(=O)[C@@H](NC(=O)[C@@H](Cc2ccccc2)NC(=O)COCCOCCNC(=O)CSC[C@@H]2C[C@@H]3c4cccc5[nH]cc(c45)C[C@H]3N(C)C2)CSSC[C@@H](C(=O)N[C@H](C(N)=O)[C@@H](C)O)NC1=O [Example 40]
15.5 nM | 1.65 nM | 105 nM | 1000 nM | 1050 nM | 27.6 nM | CCCN1C[C@H](CSCC(=O)N[C@H](Cc2ccccc2)C(=O)NCCOCCOCC(=O)N[C@H](Cc2ccccc2)C(=O)N[C@H]2CSSC[C@@H](C(=O)N[C@H](C(N)=O)[C@@H](C)O)NC(=O)[C@H](C(C)C)NC(=O)[C@H](CCCCN)NC(=O)[C@@H](Cc3c[nH]c4ccccc34)NC(=O)[C@H](Cc3ccc(OC(=O)CSC[C@@H]4C[C@@H]5c6cccc7[nH]cc(c67)C[C@H]5N(CCC)C4)c(I)c3)NC2=O)C[C@@H]2c3cccc4[nH]cc(c34)C[C@H]21 [Example 5] (X1-[dF][AEEA][dF]C[X3][dW]KVCT-NH2; disulfide 4-9)
278 nM | 0.34 nM | 510 nM | 1000 nM | 120 nM | 20.6 nM | CC[C@@H]1NC(=O)[C@H](CCCCN)NC(=O)[C@@H](Cc2c[nH]c3ccccc23)NC(=O)[C@H](Cc2ccc(O)cc2)NC(=O)[C@@H](NC(=O)[C@@H](Cc2ccccc2)NC(=O)COCCOCCNC(=O)COCCOCCNC(=O)CSC[C@@H]2C[C@@H]3c4cccc5[nH]cc(c45)C[C@H]3N(C)C2)CSSC[C@@H](C(=O)N[C@H](C(N)=O)[C@@H](C)O)NC1=O [Example 42]
65 nM | 0.51 nM | 677 nM | 509 nM | 798 nM | 56.5 nM | C=CCN1C[C@H](C(=O)N(CCCN(C)CC(=O)N[C@H](Cc2ccccc2)C(=O)N[C@H]2CSSC[C@@H](C(=O)N[C@H](C(N)=O)[C@@H](C)O)NC(=O)[C@H](CC)NC(=O)[C@H](CCCCN)NC(=O)[C@@H](Cc3c[nH]c4ccccc34)NC(=O)[C@H](Cc3ccc(O)cc3)NC2=O)C(=O)NCC)C[C@@H]2c3cccc4[nH]cc(c34)C[C@H]21 [Example 6]

— patent publication US20110065632A1, “PHARMACEUTICAL COMPOSITIONS OF SOMATOSTATIN-DOPAMINE CONJUGATES” (priority 2008, published 2011)
